From US20230192700A1, “PYRAZOLOPYRAZINES ACTING ON CANCERS VIA INHIBITION OF CDK12” (Bayer Aktiengesellschaft, priority 2020, published 2023)

Assays:
[1] = system: MDA-MB-231 human breast cancer cells; test: Proliferation assay MDA-MB-231 (crystal violet); assay type: cell-based; conditions: Homo sapiens, MDA-MB-231, 96 h, MDA-MB-231 cells, 4 days, median, read-out: Prolif-MDA MB231 IC50 - [mol/l] (median)
Description: 4. Proliferation assay: MDA-MB-231, CAL-120
Human tumour cells were originally obtained from the American Type Culture Collection (ATCC), or from the Deutsche Sammlung von Mikroorganismen and Zellkulturen (DSMZ, German Collection of Microorganisms and Cell Cultures). Cultivated tumour cells (CAL-120, human breast adenocarcinoma cells, DSMZ ACC-459; MDA-M B-231, human breast cancer cells, ATCC HTB-26) were plated at a density of 4,000 cells/well in a 96-well multititer plate in 200 microL of their respective growth medium supplemented 10% fetal calf serum. After 24 hours, the cells of one plate (zero-point plate) were stained with crystal violet (see below), while the medium of the other plates was supplemented with the test substances in various concentrations (0 micromol/L, as well as in the range of 0.01-10 micromol/L; the final concentration of the solvent dimethyl sulfoxide was adjusted to 0.1%) using a Tecan HP D300 Digital Dispenser. The cells were incubated for 4 days in the presence of test substances. Cell proliferation was determined by staining the cells with crystal violet: the cells were fixed by adding 20 microL/measuring point of an 11% glutaric aldehyde solution for 15 minutes at room temperature. After three washing cycles of the fixed cells with water, the plates were dried at room temperature. The cells were stained by adding 100 microL/measuring point of a 0.1% crystal violet solution (pH 3.0). After three washing cycles of the stained cells with water, the plates were dried at room temperature. The dye was dissolved by adding 100 microL/measuring point of a 10% acetic acid solution. The extinction was determined by photometry at a wavelength of 595 nm. The change of cell number, in percent, was calculated by normalization of the measured values to the extinction values of the zero-point plate(=0%) and the extinction of the untreated (0 μM) cells(=100%). The IC50 values (inhibitory concentration at 50% of maximal effect) were determined by means of a 4 parameter fit.

CDK12 = target: T1, CDK12 (Homo sapiens, UniProt Q9NYV4); test: CDK12 nuclear protein level: immunofluorescence/high content analysis in CAL-120 cells; assay type: cell-based; conditions: for DC50: CAL-120 cells, 24 h, nuclear CDK12 staining intensity, median, read-out: CDK12 degradation IF DC50 - [mol/l] (median); for (IC50 CDK12 high ATP) to (Degradation DC50 CDK12) ratio: ratio of IC50 CDK12 hATP (2 mM ATP) to DC50 CDK12 (IF, CAL-120)
T1 construct: endogenous in cells; host or cells: CAL-120 human breast cancer cells (DSMZ ACC 459)
T1 sequence (Q9NYV4 whole entry): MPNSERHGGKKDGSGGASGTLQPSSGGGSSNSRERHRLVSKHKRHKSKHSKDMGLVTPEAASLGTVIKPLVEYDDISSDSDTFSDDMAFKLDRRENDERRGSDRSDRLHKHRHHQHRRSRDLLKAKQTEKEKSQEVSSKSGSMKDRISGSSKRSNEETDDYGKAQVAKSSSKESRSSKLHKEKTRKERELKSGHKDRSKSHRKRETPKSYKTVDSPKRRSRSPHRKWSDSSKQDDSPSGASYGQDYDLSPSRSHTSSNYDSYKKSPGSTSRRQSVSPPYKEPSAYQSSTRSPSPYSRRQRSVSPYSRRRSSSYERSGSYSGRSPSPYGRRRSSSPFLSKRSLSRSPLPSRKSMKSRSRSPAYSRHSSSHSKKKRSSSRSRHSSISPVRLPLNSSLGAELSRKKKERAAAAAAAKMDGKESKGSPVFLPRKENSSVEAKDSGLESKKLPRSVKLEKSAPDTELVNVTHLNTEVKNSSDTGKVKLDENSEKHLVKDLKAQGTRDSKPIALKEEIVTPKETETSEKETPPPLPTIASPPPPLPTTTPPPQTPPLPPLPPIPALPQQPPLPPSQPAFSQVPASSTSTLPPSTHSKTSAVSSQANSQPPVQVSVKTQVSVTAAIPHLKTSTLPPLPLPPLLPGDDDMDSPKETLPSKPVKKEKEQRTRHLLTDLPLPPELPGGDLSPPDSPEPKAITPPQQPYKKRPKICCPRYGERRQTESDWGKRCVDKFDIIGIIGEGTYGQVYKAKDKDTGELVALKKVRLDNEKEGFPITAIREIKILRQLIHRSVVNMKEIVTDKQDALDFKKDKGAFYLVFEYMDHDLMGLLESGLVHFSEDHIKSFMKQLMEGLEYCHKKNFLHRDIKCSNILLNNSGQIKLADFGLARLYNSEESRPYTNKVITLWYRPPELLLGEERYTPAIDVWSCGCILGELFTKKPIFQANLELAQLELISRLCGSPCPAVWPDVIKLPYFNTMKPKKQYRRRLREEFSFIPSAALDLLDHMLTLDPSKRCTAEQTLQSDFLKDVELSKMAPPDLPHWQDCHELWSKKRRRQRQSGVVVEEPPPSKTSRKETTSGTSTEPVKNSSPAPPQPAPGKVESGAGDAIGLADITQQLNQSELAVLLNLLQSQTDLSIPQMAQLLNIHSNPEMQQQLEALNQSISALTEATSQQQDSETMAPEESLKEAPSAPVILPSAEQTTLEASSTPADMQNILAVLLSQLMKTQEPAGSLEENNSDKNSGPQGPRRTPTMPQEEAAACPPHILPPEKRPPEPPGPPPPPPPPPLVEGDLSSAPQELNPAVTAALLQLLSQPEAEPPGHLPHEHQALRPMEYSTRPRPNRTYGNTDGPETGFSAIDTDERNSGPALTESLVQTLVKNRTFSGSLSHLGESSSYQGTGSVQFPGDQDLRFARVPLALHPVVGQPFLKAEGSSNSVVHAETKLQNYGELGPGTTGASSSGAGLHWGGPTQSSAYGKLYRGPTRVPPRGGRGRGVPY
T1 sequence (O75909 whole entry partner): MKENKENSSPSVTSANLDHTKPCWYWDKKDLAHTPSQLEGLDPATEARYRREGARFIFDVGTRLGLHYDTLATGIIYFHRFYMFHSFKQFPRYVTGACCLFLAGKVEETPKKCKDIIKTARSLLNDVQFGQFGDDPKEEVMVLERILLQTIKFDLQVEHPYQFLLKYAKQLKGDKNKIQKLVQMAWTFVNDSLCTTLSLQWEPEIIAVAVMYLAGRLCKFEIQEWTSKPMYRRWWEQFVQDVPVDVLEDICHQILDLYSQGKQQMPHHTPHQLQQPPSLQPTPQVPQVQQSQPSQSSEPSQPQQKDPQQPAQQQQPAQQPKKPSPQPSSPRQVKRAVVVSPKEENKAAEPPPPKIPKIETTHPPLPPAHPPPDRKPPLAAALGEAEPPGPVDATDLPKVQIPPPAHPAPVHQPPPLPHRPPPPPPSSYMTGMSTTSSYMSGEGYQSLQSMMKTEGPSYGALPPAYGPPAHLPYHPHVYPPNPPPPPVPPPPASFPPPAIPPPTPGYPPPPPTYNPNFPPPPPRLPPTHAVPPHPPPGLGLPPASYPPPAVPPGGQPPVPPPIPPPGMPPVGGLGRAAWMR
Summary of the method: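 Cells were exposed to compounds in dose-response for 24 h at 37 °C, then PFA-fixed, immunostained for CDK12 and counterstained with Hoechst before confocal imaging. Nuclear CDK12 intensity was normalized to DMSO and control. DC50 is the concentration giving 50% reduction of nuclear staining.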

IC50 [1] [µM]	DC50 (CDK12) [µM]	(IC50 CDK12 high ATP) to (Degradation DC50 CDK12) ratio (CDK12)	Compound
0.0144	0.0222	>1050	CN1CCC(n2nc(NCc3nc4c(Br)cccc4[nH]3)c3ncc(C4CC4)nc32)CC1 [Example 20, N-[(4-bromo-1H-benzimidazol-2-yl)methyl]-6-cyclopropyl-1-(1-methylpiperidin-4-yl)-1H-pyrazolo[3,4-b]pyrazin-3-amine]
0.0113	0.0287	>697	Cc1c(Cl)ccc2[nH]c(CNc3nn(C4CCN(C)CC4)c4nc(C5CC5)cnc34)nc12 [Example 21, N-[(5-chloro-4-methyl-1H-benzimidazol-2-yl)methyl]-6-cyclopropyl-1-(1-methylpiperidin-4-yl)-1H-pyrazolo[3,4-b]pyrazin-3-amine]
0.00802	0.0118	>1695	CN1CCC(n2nc(NCc3nc4cc(Cl)ccc4[nH]3)c3ncc(C4CC4)nc32)CC1 [Example 22, N-[(5-chloro-1H-benzimidazol-2-yl)methyl]-6-cyclopropyl-1-(1-methylpiperidin-4-yl)-1H-pyrazolo[3,4-b]pyrazin-3-amine]
0.0286	0.0317	388	Fc1cccc2[nH]c(CNc3nn(C4CCOCC4)c4nc(C5CC5)cnc34)nc12 [Example 23, 6-cyclopropyl-N-[(4-fluoro-1H-benzimidazol-2-yl)methyl]-1-(oxan-4-yl)-1H-pyrazolo[3,4-b]pyrazin-3-amine]
0.0124	0.012	1614	COc1cccc2[nH]c(CNc3nn(C4CCOCC4)c4nc(C5CC5)cnc34)nc12 [Example 24, 6-cyclopropyl-N-[(4-methoxy-1H-benzimidazol-2-yl)methyl]-1-(oxan-4-yl)-1H-pyrazolo[3,4-b]pyrazin-3-amine]
0.00507	0.00843	2193	CN1CCC(n2nc(NCc3nc4cc(C(F)(F)F)ccc4[nH]3)c3ncc(C4CC4)nc32)CC1 [Example 25, 6-cyclopropyl-1-(1-methylpiperidin-4-yl)-N-{[5-(trifluoromethyl)-1H-benzimidazol-2-yl]methyl}-1H-pyrazolo[3,4-b]pyrazin-3-amine]
0.0222	0.016	>509	Cc1c(F)ccc2[nH]c(CNc3nn(C4CCN(C)CC4)c4nc(C5CC5)cnc34)nc12 [Example 26, 6-cyclopropyl-N-[(5-fluoro-4-methyl-1H-benzimidazol-2-yl)methyl]-1-(1-methylpiperidin-4-yl)-1H-pyrazolo[3,4-b]pyrazin-3-amine]
0.0199	0.0106	>1880	Cc1ccc2[nH]c(CNc3nn(C4CCN(C)CC4)c4nc(C5CC5)cnc34)nc2c1C [Example 28, 6-cyclopropyl-N-[(4,5-dimethyl-1H-benzimidazol-2-yl)methyl]-1-(1-methylpiperidin-4-yl)-1H-pyrazolo[3,4-b]pyrazin-3-amine]
0.0145	0.0175	>1145	CN1CCC(n2nc(NCc3nc4cc(Cl)c(F)cc4[nH]3)c3ncc(C4CC4)nc32)CC1 [Example 29, N-[(5-chloro-6-fluoro-1H-benzimidazol-2-yl)methyl]-6-cyclopropyl-1-(1-methylpiperidin-4-yl)-1H-pyrazolo[3,4-b]pyrazin-3-amine]
0.0299	0.0171	>1376	CN1CCC(n2nc(NCc3nc4cc(F)c(F)cc4[nH]3)c3ncc(C4CC4)nc32)CC1 [Example 30, 6-cyclopropyl-N-[(5,6-difluoro-1H-benzimidazol-2-yl)methyl]-1-(1-methylpiperidin-4-yl)-1H-pyrazolo[3,4-b]pyrazin-3-amine]
0.0182	0.0144	>1388	CN1CCC(n2nc(NCc3nc4c(Cl)c(F)ccc4[nH]3)c3ncc(C4CC4)nc32)CC1 [Example 31, N-[(4-chloro-5-fluoro-1H-benzimidazol-2-yl)methyl]-6-cyclopropyl-1-(1-methylpiperidin-4-yl)-1H-pyrazolo[3,4-b]pyrazin-3-amine]
0.00552	0.0115		Fc1ccc2[nH]c(CNc3nn(C4CCOCC4)c4nc(C5CC5)cnc34)nc2c1F [Example 32, 6-cyclopropyl-N-[(4,5-difluoro-1H-benzimidazol-2-yl)methyl]-1-(oxan-4-yl)-1H-pyrazolo[3,4-b]pyrazin-3-amine]
0.037	0.00865	>2312	Cc1cccc2[nH]c(CNc3nn(C4CCOCC4)c4nc(C5CC5)cnc34)nc12 [Example 33, 6-cyclopropyl-N-[(4-methyl-1H-benzimidazol-2-yl)methyl]-1-(oxan-4-yl)-1H-pyrazolo[3,4-b]pyrazin-3-amine]
0.114	0.162	>124	FC1(F)CCC(n2nc(NCc3nc4ccccc4[nH]3)c3ncc(C4CC4)nc32)CC1 [Example 36, N-[(1H-benzimidazol-2-yl)methyl]-6-cyclopropyl-1-(4,4-difluorocyclohexyl)-1H-pyrazolo[3,4-b]pyrazin-3-amine]
0.315	0.0382	>534	c1ccc2[nH]c(CNc3nn(C4CCCC4)c4nc(C5CC5)cnc34)nc2c1 [Example 39, N-[(1H-benzimidazol-2-yl)methyl]-1-cyclopentyl-6-cyclopropyl-1H-pyrazolo[3,4-b]pyrazin-3-amine]
0.0839	0.00255	>7840	O[C@H]1C[C@@H](n2nc(NCc3nc4ccccc4[nH]3)c3ncc(C4CC4)nc32)C1 [Example 40, cis-3-(3-{[(1H-benzimidazol-2-yl)methyl]amino}-6-cyclopropyl-1H-pyrazolo[3,4-b]pyrazin-1-yl)cyclobutan-1-ol]
0.0622	0.00953		O[C@H]1C[C@H](n2nc(NCc3nc4ccccc4[nH]3)c3ncc(C4CC4)nc32)C1 [Example 43, trans-3-(3-{[(1H-benzimidazol-2-yl)methyl]amino}-6-cyclopropyl-1H-pyrazolo[3,4-b]pyrazin-1-yl)cyclobutan-1-ol]
0.0168	0.00811		c1ccc2[nH]c(CNc3nn(C4C[C@H]5CC[C@@H](C4)O5)c4nc(C5CC5)cnc34)nc2c1 (stereo partly drawn) [Example 45, exo/endo-N-[(1H-benzimidazol-2-yl)methyl]-6-cyclopropyl-1-(8-oxabicyclo[3.2.1]octan-3-yl)-1H-pyrazolo[3,4-b]pyrazin-3-amine]
0.0472	0.0138		OC[C@H]1C[C@H](n2nc(NCc3nc4ccccc4[nH]3)c3ncc(C4CC4)nc32)C1 [Example 46, [trans-3-(3-{[(1H-benzimidazol-2-yl)methyl]amino}-6-cyclopropyl-1H-pyrazolo[3,4-b]pyrazin-1-yl)cyclobutyl]methanol]
0.0508	0.0228		OC[C@H]1C[C@@H](n2nc(NCc3nc4ccccc4[nH]3)c3ncc(C4CC4)nc32)C1 [Example 47, [cis-3-(3-{[(1H-benzimidazol-2-yl)methyl]amino}-6-cyclopropyl-1H-pyrazolo[3,4-b]pyrazin-1-yl)cyclobutyl]methanol]
0.2	0.0292	>685	c1ccc2[nH]c(CNc3nn(C4CCC4)c4nc(C5CC5)cnc34)nc2c1 [Example 49, N-[(1H-benzimidazol-2-yl)methyl]-1-cyclobutyl-6-cyclopropyl-1H-pyrazolo[3,4-b]pyrazin-3-amine]
0.015	0.00315		O[C@H]1CC[C@H](n2nc(NCc3nc4ccccc4[nH]3)c3ncc(C4CC4)nc32)CC1 [Example 50, trans-4-(3-{[(1H-benzimidazol-2-yl)methyl]amino}-6-cyclopropyl-1H-pyrazolo[3,4-b]pyrazin-1-yl)cyclohexan-1-ol]
0.0233	0.032		Fc1ccc2[nH]c(CNc3nn(C4CCOCC4)c4nc(C5CC5)cnc34)nc2c1 [Example 53, 6-cyclopropyl-N-[(5-fluoro-1H-benzimidazol-2-yl)methyl]-1-(oxan-4-yl)-1H-pyrazolo[3,4-b]pyrazin-3-amine]
